Reference: patent US20090104126A1, “Sulfamate Compounds and Uses Thereof” (Solvay Pharmaceuticals GmbH, priority 2007, published 2009)
Like-named read-outs stand apart in the source and are kept apart here. Marks after values point to notes of the source that are not given here.

What was measured:
mouse = conditions: for number of deaths after ECS: 20 mice per group, vehicle 1; for ECS intensity administered, mean ± s.e.m.: vehicle 36.5 ± 1.0
Description: The method, which detects pro-convulsant or anti-convulsant activity, follows that described by Swinyard et al. (J. Pharmacol. Exp. Ther. 1952, 106, 319-330). Mice were administered ECS (rectangular current, 0.4 s, 50 Hz) via corneal electrodes connected to a constant current shock generator (Ugo Basile: Type 7801).
A group wherein the vehicle is administered orally 60 minutes before the ECS serves a control. Diazepam (8 mg/kg p.o.), administered under the same experimental conditions, served as a positive anti-convulsive reference substance.
If there were also no convulsions in animal no 2, then the current was further increase in the following animals (increases of 10 mA) until the first tonic convulsion was observed. Once the first tonic convulsion was observed, the intensity of ECS was decreased by 5 mA for the next animal and then the intensity was decreased or increased by 5 mA from animal to animal depending on whether or the previous animal convulsed or not. The minimum intensity given was 25 mA and the maximum intensity given was 95 mA. The electroconvulsive shock threshold was determined as the mean current administered in the last 20 mice.
The number of deaths is also recorded approximately 30 minutes after the animal has been tested for convulsions. The test was performed blind. A positive percent change indicates an anticonvulsant effect. A negative percent change indicates a proconvulsant effect.
Quantitative data were analyzed by comparing treated groups with vehicle control using unpaired Student's t tests. Quantal data were analyzed by comparing treated groups with vehicle control using Fisher's Exact Probability tests.

male C57BI/6 mice = assay: Acute in vivo food intake test in mice; conditions: high caloric diet, 50 mg/kg/day oral gavage twice daily for 3 days, day 3
Description: The studies were carried out in male C57BI/6 mice (n=12 per group). The mice were kept on an inverted 12/12 h light/dark cycle (lights on 22:00). They were allowed food (high caloric diet) and water ad libitum. Food intake and water consumption was measured daily. The test compound of general Formula I was suspended in 1% methyl hydroxyethyl cellulose in water and 0.1% (v/v) of poloxamer 188 and administered by oral gavage at a dose of 50 mg/kg/day twice daily for 3 days. One half of the dose was administered at 8.00-10.00 h; the remaining half of the dose was administered between 14.00-15.00 h.

[1] = biological target: T1, recombinant human carbonic anhydrase isoenzyme VB (Homo sapiens, UniProt Q9Y2D0); assay: In vitro inhibition of human carbonic anhydrase isoenzyme VB (dansylamide fluorescence); type: biochemical; conditions: final compound concentration 10 μM
T1 construct: purchased R&D Systems
Description: (§1) The test compounds of general Formula I in 96 well microplates were diluted with aqua bidest by using an automatic pipettor (CyBiWell®). From the different dilution plates, aliquots of 20 μl were transferred to the 96 well black assay plates with a pipetting station (Tecan Genesis®). In a second step, 148 μl of potassium phosphate buffer (20 mM, pH 7.4) was added, and as a third step, 20 μl of enzyme solution (1 μM human carbonic anhydrase isoenzyme I from erythrocytes (Sigma-Aldrich) or human carbonic anhydrase II from erythrocytes (Sigma Aldrich), or recombinant human carbonic anhydrase isoenzyme VB (R&D Systems), dissolved in potassium phosphate buffer) incubated for 60 min at room temperature and the fluorescence signal (Tecan Ultra® fluorescence reader; excitation wavelength: 280 nm; emission wavelength: 465 nm) read at the end of the preincubation period (FLU-1). After the preincubation time, 20 μl of aqueous dansylamide solution (1 mM dansylamide (Sigma-Aldrich), dissolved in hydrochloric acid) were added and the fluorescence signal read every 10 min for a period of 60 min at 37° C. For calculation, the fluorescence data of the time point 60 min (FLU-2) were used. The total volume of assay mixture amounted to 208 μl. […] Each microplate also contained blanks without compound and enzyme, controls without compound and ethoxzolamide (final concentration 5×10^-[…]) as validation standard compound. All data reflect single measurements. Data were expressed as % inhibition after calculation by the formula: [formula] […] Concentration action figures were calculated by applying the Prism algorithm for nonlinear regression (curve-fit): sigmoidal dose response with variable slope and the constraints: top: 100 and bottom 0.

[2] = tested on: embyronal hippocampal neurons; assay: Effect on neurite outgrowth from hippocampal neurons; type: cell-based, rat; conditions: for neurite mean length (% of control): 3 days exposure, two cultures normalized
Description: Neurite outgrowth is an important parameter to evaluate the neurotrophic potency of a compound. […] The hippocampal neurons from pregnant Wistar female rats were dissociated by trypsinization for 30 min at 37° C. (trypsin-EDTA, Gibco) in presence of DNAse I (Roche, Meylan). The reaction was stopped by addition of medium of Eagle modified by Dulbecco (DMEM; Gibco) with 10% of fetal bovine serum (Gibco). The suspension was triturated with a 10-ml pipette and using a 21G needle syringe and centrifuged at 350×g for 10 min at room temperature. The resulting pellet was re-suspended in culture medium containing Neurobasal medium (Gibco) with 2% of B27 supplement (Gibco) and 2 mM of glutamine (Gibco). Viable cells were counted in a Neubauer cytometer using the trypan blue exclusion test (Sigma) and seeded on the basis of 30 000 cells per Petri dish (Nunc) precoated with poly-L-lysine (Sigma). Cells were allowed to adhere 2 h and maintained in a humidified incubator at 37° C. in 5% CO2-95% air atmosphere.
After adhesion, vehicle and test compound at different concentrations (1 μM, 3 μM, 10 μM and 30 μM) were added to the medium. BDNF (50 ng/ml, 3.7 nM) was included as positive control for neurite growth. The test compound was tested in two independent cultures in parallel with control and BNDF cultures.
After the 3 days exposure of the neurons to the test compounds, cultures were washed in phosphate-buffered saline (PBS, Gibco) and fixed using 2.5% glutaraldehyde in PBS. Several pictures (˜80) of cells with neurites without any branching were taken per condition using a digital camera (Coolpix 995; Nikon) fixed on the microscope (Nikon, objective 40×). Neurites were outlined on computer screen using imaging software (Image-Pro Plus, France), which automatically calculates the length.

[3] = biological target: T2, human carbonic anhydrase II from erythrocytes (Homo sapiens, UniProt P00918); assay: In vitro inhibition of human carbonic anhydrase II (dansylamide fluorescence); type: biochemical
T2 construct: human carbonic anhydrase II from erythrocytes (Sigma Aldrich); purchased Sigma Aldrich; host or cells: human erythrocytes
Description: as §1

[4] = biological target: T3, human carbonic anhydrase isoenzyme I from erythrocytes (Homo sapiens, UniProt P00915); assay: In vitro inhibition of human carbonic anhydrase isoenzyme I (dansylamide fluorescence); type: biochemical
T3 construct: human carbonic anhydrase isoenzyme I from erythrocytes (Sigma-Aldrich); purchased Sigma-Aldrich; host or cells: human erythrocytes
Description: as §1

[5] = tested on: STZ-diabetic male Sprague Dawley rats; assay: Diabetic-induced neuropathic pain: cold bath test (cold allodynia) in STZ rats; type: in vivo, rat; conditions: day 10
[6] = tested on: STZ-diabetic male Sprague Dawley rats; assay: Diabetic-induced neuropathic pain: warm plate (38° C.) test (warm allodynia) in STZ rats; type: in vivo, rat; conditions: day 10
[7] = tested on: embyronal hippocampal neurons; assay: Effect on neurite outgrowth from hippocampal neurons; type: cell-based, rat; conditions: BDNF 1.85 nM (positive control), 3 days exposure
[8] = final compound concentration 0.1 μM
[9] = final compound concentration 1 μM

T1 sequence (Q9Y2D0 34-317): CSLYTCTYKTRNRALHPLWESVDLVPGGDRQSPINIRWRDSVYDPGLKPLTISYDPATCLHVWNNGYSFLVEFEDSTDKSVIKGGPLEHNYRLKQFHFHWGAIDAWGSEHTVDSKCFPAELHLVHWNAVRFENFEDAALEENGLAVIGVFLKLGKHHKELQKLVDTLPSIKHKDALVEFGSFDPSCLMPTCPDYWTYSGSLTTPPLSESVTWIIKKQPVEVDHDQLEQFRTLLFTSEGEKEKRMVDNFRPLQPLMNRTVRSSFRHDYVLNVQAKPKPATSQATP
T3 sequence (P00915 whole entry): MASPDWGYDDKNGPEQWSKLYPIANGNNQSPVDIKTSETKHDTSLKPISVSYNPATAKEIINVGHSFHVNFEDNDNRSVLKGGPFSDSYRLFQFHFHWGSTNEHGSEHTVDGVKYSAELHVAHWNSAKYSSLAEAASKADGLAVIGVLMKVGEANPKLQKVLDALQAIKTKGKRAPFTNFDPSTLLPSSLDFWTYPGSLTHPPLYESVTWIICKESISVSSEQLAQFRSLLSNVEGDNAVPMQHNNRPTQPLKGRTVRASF

CC1(C)[C@H]2CC[C@H](COS(N)(=O)=O)[C@@H]1C2 [Compound 1, [(1S,2S,5S)-6,6-dimethylbicyclo[3.1.1]hept-2-yl]methyl-sulfamate]
number of deaths after ECS (mouse; 10 mg/kg p.o. −60 min): 2
ECS intensity administered, mean ± s.e.m. (mouse; 10 mg/kg p.o. −60 min): 40.0 ± 1.2 mA
number of deaths after ECS (mouse; 30 mg/kg p.o. −60 min): 0
ECS intensity administered, mean ± s.e.m. (mouse; 30 mg/kg p.o. −60 min): 43.5 ± 1.5 mA
number of deaths after ECS (mouse; 100 mg/kg p.o. −60 min): 1
ECS intensity administered, mean ± s.e.m. (mouse; 100 mg/kg p.o. −60 min): 88.0 ± 2.1 mA
food intake [% of control] (male C57BI/6 mice): 69.4% (day 3) % of control
inhibition at 10 µM [1]: 70%
neurite mean length (% of control) ([2]; 1 μM): 110.9 % of control
neurite mean length (% of control) ([2]; 3 μM): 108.9 % of control
neurite mean length (% of control) ([2]; 10 μM): 113.2 % of control
neurite mean length (% of control) ([2]; 30 μM): 114.5 % of control
inhibition at 0.1 µM [3, 8]: 56%
inhibition at 0.1 µM [4, 8]: 85%
% inhibition (compared to STZ/vehicle group), cold bath test ([5]; 10 mg/kg p.o. 1 h before test): 62* %
% inhibition (compared to STZ/vehicle group), cold bath test ([5]; 30 mg/kg p.o. 1 h before test): 58* %
% inhibition (compared to STZ/vehicle group), cold bath test ([5]; 50 mg/kg p.o. 1 h before test): 72* %
% inhibition (compared to STZ/vehicle group), warm plate test ([6]; 10 mg/kg p.o. 1 h before test): 53%
% inhibition (compared to STZ/vehicle group), warm plate test ([6]; 30 mg/kg p.o. 1 h before test): 59* %
% inhibition (compared to STZ/vehicle group), warm plate test ([6]; 50 mg/kg p.o. 1 h before test): 64* %

CC1(C)[C@@H]2CC[C@@H](COS(N)(=O)=O)[C@H]1C2 [Compound 2, [(1R,2R,5R)-6,6-dimethylbicyclo[3.1.1]hept-2-yl]methyl-sulfamate]
inhibition at 10 µM [1]: 75%
inhibition at 0.1 µM [3, 8]: 33%
inhibition at 0.1 µM [4, 8]: 70%

CC1(C)[C@H]2CC[C@@H](CCOS(N)(=O)=O)[C@@H]1C2 [Compound 3, [(1S,2S,5S)-6,6-dimethylbicyclo[3.1.1]hept-2-yl]ethyl-sulfamate]
% Inhibition [1]: 55%
% Inhibition [3, 8]: 15%
% Inhibition [4, 8]: 28%

CC1(C)[C@H]2CC[C@@H](COS(N)(=O)=O)[C@@H]1C2 [Compound 4, [(1S,2R,5S)-6,6-dimethylbicyclo[3.1.1]hept-2-yl]methylsulfamate]
% Inhibition [1]: 53%
% Inhibition [3, 9]: 72%
% Inhibition [4, 9]: 80%

CN1C(=O)CN=C(c2ccccc2)c2cc(Cl)ccc21 [Diazepam, reference compound]
ECS intensity % change from control (mouse; 8 mg/kg p.o. −60 min): +124%
number of deaths after ECS (mouse; 8 mg/kg p.o. −60 min): 0
ECS intensity administered, mean ± s.e.m. (mouse; 8 mg/kg p.o. −60 min): 81.8 ± 3.0 mA

(1R,4S)-bicyclo[2.2.1]hept-2-yl-methylsulfamate [Compound 5]
% Inhibition [1]: 41%
% Inhibition [3, 9]: 77%
% Inhibition [4, 9]: 91%

(4S)-bicyclo[2.2.1]hept-5-en-2-ylmethylsulfamate [Compound 6]
% Inhibition [1]: 40%
% Inhibition [3, 9]: 76%
% Inhibition [4, 9]: 94%

B1: BDNF: BDNF (50 ng/ml, 3.7 nM) was included as positive control for neurite growth (protein, UniProt P23560 19-247, looked up)
Neurotrophic factor BDNF …: APMKEANIRGQGGLAYPGVRTHGTLESVNGPKAGSRGLTSLADTFEHVIEELLDEDQKVRPNEENNKDADLYTSRVMLSSQVPLEPPLLFLLEEYKNYLDAANMSMRVRRHSDPARRGELSVCDSISEWVTAADKKTAVDMSGGTVTVLEKVPVSKGQLKQYFYETKCNPMGYTKEGCRGIDKRHWNSQCRTTQSYVRALTMDSKKRIGWRFIRIDTSCVCTLTIKRGR
neurite mean length (% of control) [7]: 116.4 % of control
increase in neurite length normalized by mean control neurite length ([2]; 50 ng/ml BDNF, both cultures normalized): 16.4%
mean increase in neurite length ([2]; 50 ng/ml BDNF, first culture): 24.5 μm
neurite length (mean±SEM) ([2]; 50 ng/ml BDNF, first culture, n=79 (control 105.7±3.2)): 131.6±3.1 μm
mean increase in neurite length ([2]; 50 ng/ml BDNF, second culture): 8.6 μm
neurite length (mean±SEM) ([2]; 50 ng/ml BDNF, second culture, n=82 (control 109.3±3.1)): 118.7±2.8 μm
